Where two headings read alike, the source gives them in different places.
Experiments:
PC-3 cell line = test: MTT cytotoxicity assay in PC-3
Protocol: The results are tabulated as IC50 values. All experiments were independently performed at least three times and the values were calculated after 72 hours exposure (drug concentrations of 2, 5, 7 and 10 μM).
PC-3 cells were seeded in 96-well plates (Millipore, Eschborn, Germany) at a density of 5 × 10^3 cells per well. The samples were incubated at 37 °C under 5% CO2 overnight prior to the addition of the compounds. Compounds were diluted in complete medium. After 3 days of incubation, 10 μL MTT solution (5 mg/mL in PBS) was added to the cells in each well and these were stored for an additional 4 h at 37 °C. […] The percentage of viable cells was calculated to obtain IC50-values.
PC-3 are human tumorigenic and metastatic prostate cancer cells and these were obtained from American Type Culture Collection (ATCC, Manassas, VA, USA) (passage 36).

HTB-54 = test: MTT cytotoxicity assay (NCI) in HTB-54; format: cell-based, human; details: 72 h; for TGI HTB-54: dose that completely inhibits cell growth; for LD50 HTB-54: dose that kills 50% of cells; for GI50: Homo sapiens, HTB-54, dose that inhibits 50% of cell growth, read-out: GI50 HTB-54
Protocol: (§1) In order to investigate the effect of the active compounds in more detail, we examined the activity on proliferation in other cancer cell lines. […] Tests were carried out in the Department of Health Science, Public University of Navarra against a panel of four human tumour cell lines: lung (HTB-54), colon (HT-29), leukaemia (CCRF-CEM) and breast adenocarcinoma (MCF-7). Cytotoxicity assays were performed based on the reactivity of MTT [3-(4,5-dimethylthiazol-2-yl)-2,5-diphenyl-tetrazolium bromide], as described by NCI [39]. […] Doxorubicin was used as a control. As guidance with regard to selectivity, all of the compounds were further examined for toxicity in a mammary gland cell culture derived from non-malignant cells (184B5). Drug concentrations ranged from 0.01 to 100 μM.
(§2) The cytotoxic effects of each substance were tested at five different doses between 0.01 and 100 μM. Each substance was initially dissolved in DMSO at a concentration of 0.1 M, and serial dilutions were prepared using culture medium. The plates with cells from the different lines, to which medium containing the substance under test were added, were incubated for 72 h at 37 °C in a humidified atmosphere containing 5% CO2. European Collection of Cell Cultures (ECACC) or American Type Culture Collection (ATCC) provided human tumour cell lines. Four cell lines were used: one human lymphocytic leukemia (CCRF-CEM) and three human solid tumours, one colon carcinoma (HT-29), one lung carcinoma (HTB-54) and one breast adenocarcinoma (MCF-7). CCRF-CEM, HT-29 and HTB-54 cells were grown in RPMI 1640 medium (Life Technologies, Carlsbad, CA, USA) supplemented with 10% foetal calf serum, 2 mM L-glutamine, 100 units/mL penicillin, 100 μg/mL streptomycin and 10 mM HEPES buffer (pH = 7.4). MCF-7 cells were grown in EMEM medium (Clonetics) supplemented with 10% foetal calf serum, 2 mM L-glutamine, 100 units/mL penicillin and 100 μg/mL streptomycin. 184B5 cells were grown Hams F-12/DMEM (50:50) supplemented as described by Li et al.. Cytotoxicity was then determined by the MTT method. […] Data were obtained from at least three independent experiments performed in quadruplicate.

HT-29 = test: MTT cytotoxicity assay (NCI) in HT-29; format: cell-based, human; details: 72 h
Protocol: as §1, §2

[1] = MTT toxicity assay in non-malignant mammary gland cells 184B5; format: cell-based; details: human
Protocol: as §1, §2

184B5 = test: as above; format: cell-based; details: 72 h
Protocol: as §1, §2

CCRF-CEM = test: MTT cytotoxicity assay (NCI) in CCRF-CEM; format: cell-based, human; details: 72 h; for TGI CCRF-CEM: dose that completely inhibits cell growth; for LD50 CCRF-CEM: dose that kills 50% of cells; for GI50: Homo sapiens, CCRF-CEM, dose that inhibits 50% of cell growth, read-out: GI50 CCRF-CEM
Protocol: as §1, §2

MCF-7 [2] = test: MTT cytotoxicity assay (NCI) in MCF-7; format: cell-based, human; details: 72 h; for TGI MCF-7: dose that completely inhibits cell growth; for LD50 MCF-7: dose that kills 50% of cells; for GI50: Homo sapiens, MCF7, dose that inhibits 50% of cell growth, read-out: GI50 MCF-7
Protocol: as §1, §2

MCF-7 [3] = details: comparison drugs, MCF-7 by context; no reference given; cited from earlier work
[4] = Homo sapiens, PC-3, 72 h, read-out: IC50 PC-3 cell line
[5] = Homo sapiens, PC-3, read-out: IC50 (cytotoxic activity in PC-3 cell line)
[6] = read-out: IC50 PC-3 cell line, 72 h exposure, MTT, drug concentrations 2, 5, 7 and 10 μM, NE = no effect is observed

For `O=C(O)C[Se]C(=O)c1ccc2ccccc2c1` [Compound 17, (2-naphthoylselenyl)acetic acid], the IC50 (PC-3 cell line; [4]) was > 10 µM.
With `O=C(O)C[Se]C(=O)C(c1ccccc1)c1ccccc1` [Compound 18, (diphenylacetylselenyl)acetic acid] the IC50 (PC-3 cell line; [4]) was > 10 µM.
In the case of `O=C(O)C[Se]C(=O)c1ccncc1` [Compound 19, (4-pyridoylselenyl)acetic acid], the IC50 (PC-3 cell line; [4]) is reported as > 10 µM and the IC50 (PC-3 cell line; [5]) is reported as > 10 µM.
In the case of `O=C(O)C[Se]C(=O)c1cccnc1` [Compound 20, (3-pyridoylselenyl)acetic acid], the IC50 (PC-3 cell line; [4]) is reported as > 10 µM and the IC50 (PC-3 cell line; [5]) is reported as > 10 µM.
With `O=C(O)C[Se]C(=O)c1cccnc1Cl` [Compound 21, (3-(2-chloro)-pyridoylselenyl)acetic acid] the “TGI HTB-54” value (HTB-54) was >100 µM, the “LD50 HTB-54” value (HTB-54) was >100 µM and the GI50 (HTB-54) was 11.8 µM. For the same compound, the “TGI HT-29” value (HT-29; dose that completely inhibits cell growth) was 60.94 µM, the “LD50 HT-29” value (HT-29; dose that kills 50% of cells) was >100 µM and the GI50 (HT-29; Homo sapiens, HT-29, dose that inhibits 50% of cell growth, read-out: GI50 HT-29) was 7.53 µM. For the same compound, the GI50 at 72 h [1] was 0.05 µM, the “LD50 184B5” value (184B5; non-malignant cells, dose that kills 50% of cells) was 7.20 µM and the “TGI 184B5” value (184B5; human) was 1.89 µM. For the same compound, the “TGI CCRF-CEM” value (CCRF-CEM) was >100 µM, the “LD50 CCRF-CEM” value (CCRF-CEM) was >100 µM and the GI50 (CCRF-CEM) was > 100 µM. The “TGI MCF-7” value (MCF-7 [2]) was 8.27 µM, the “LD50 MCF-7” value (MCF-7 [2]) was 89.21 µM and the GI50 (MCF-7 [2]) was 0.003 µM. It also gave an IC50 (PC-3 cell line; [4]) of 10 µM and an IC50 (PC-3 cell line; [5]) of 10 µM.
For `CCCSc1ncccc1C(=O)[Se]CC(=O)O` [Compound 22, (3-(2-propylthio)pyridoylselenyl)acetic acid], the IC50 (PC-3 cell line; [4]) was > 10 µM and the IC50 (PC-3 cell line; [5]) was > 10 µM.
With `O=C(O)C[Se]C(=O)c1cccs1` [Compound 23, (2-thienoylselenyl)-acetic acid] the IC50 (PC-3 cell line; [4]) was > 10 µM and the IC50 (PC-3 cell line; [5]) was > 10 µM.
In the case of `O=C(O)C[Se]C(=O)c1cnccn1` [Compound 24, (pyrazinoylselenyl)acetic acid], the IC50 (PC-3 cell line; [4]) is reported as > 10 µM and the IC50 (PC-3 cell line; [5]) is reported as > 10 µM.
In the case of `O=C(O)C[Se]C(=O)c1ccc2ccccc2n1` [Compound 25, (2-quinoloylselenyl)acetic acid], the IC50 (PC-3 cell line; [4]) is reported as > 10 µM.
For `O=C(O)C[Se]C(=O)c1cnc2ccccc2c1` [Compound 26, (3-quinoloylselenyl)acetic acid], the IC50 (PC-3 cell line; [4]) was > 10 µM.
For `COc1cccc2c1C(=O)c1c(O)c3c(c(O)c1C2=O)C[C@@](O)(C(=O)CO)C[C@@H]3O[C@H]1C[C@H](N)[C@H](O)[C@H](C)O1` [Doxorub., doxorubicin, reference compound], the “TGI HTB-54” value (HTB-54) was 1.25 µM, the “LD50 HTB-54” value (HTB-54) was 3.45 µM and the GI50 (HTB-54) was < 0.01 µM. The “TGI CCRF-CEM” value (CCRF-CEM) was 0.071 µM, the “LD50 CCRF-CEM” value (CCRF-CEM) was 0.29 µM and the GI50 (CCRF-CEM) was 0.033 µM. For the same compound, the “TGI MCF-7” value (MCF-7 [2]) was >100 µM, the “LD50 MCF-7” value (MCF-7 [2]) was >100 µM and the GI50 (MCF-7 [2]) was 0.88 µM.
In the case of `CC(=O)O[C@H]1C(=O)[C@@]2(C)[C@H]([C@H](OC(=O)c3ccccc3)[C@]3(O)C[C@H](OC(=O)[C@H](O)[C@@H](NC(=O)c4ccccc4)c4ccccc4)C(C)=C1C3(C)C)[C@]1(OC(C)=O)CO[C@@H]1C[C@@H]2O` [paclitaxel], the GI50 (MCF-7 [3]) is listed as 0.01 µM and the TGI (MCF-7 [3]) is listed as 20 ± 1.9 µM.
For “(3-phenyl-propanonylselenyl)acetic acid [Compound 12]”, the IC50 (PC-3 cell line; [6]) was > 10 µM.
In the case of “(4-methoxyphenylselenyl)acetic acid [Compound 7]”, the “IC50 PC-3 cell line” value (PC-3 cell line; 72 h exposure, MTT, drug concentrations 2, 5, 7 and 10 μM, NE = no effect is observed) is reported as “inactive”, the IC50 (PC-3 cell line; read-out: IC50 (cytotoxic activity in PC-3 cell line), as repeated in Table 5, NE = no effect) is reported as > 10 µM and the IC50 (PC-3 cell line; [6]) is reported as > 10 µM.

Source: paper PMC6254723, “Synthesis and Pharmacological Screening of Several Aroyl and Heteroaroyl Selenylacetic Acid Derivatives as Cytotoxic and Antiproliferative Agents” (Molecules, 2009)
